Laboratory results reported in ChEMBL document CHEMBL1201862, “PubChem BioAssay data set” (2004).
Active and inactive are the calls of the source.

Assays:
Caspase-6 = molecular target: T1, Caspase-6 (Homo sapiens, UniProt P55212); assay: human caspase-6 inhibitors, dose response, biochemical, VEID-R110 fluorescence, cherry-pick (AID 720632)
T1 sequence (P55212 whole entry): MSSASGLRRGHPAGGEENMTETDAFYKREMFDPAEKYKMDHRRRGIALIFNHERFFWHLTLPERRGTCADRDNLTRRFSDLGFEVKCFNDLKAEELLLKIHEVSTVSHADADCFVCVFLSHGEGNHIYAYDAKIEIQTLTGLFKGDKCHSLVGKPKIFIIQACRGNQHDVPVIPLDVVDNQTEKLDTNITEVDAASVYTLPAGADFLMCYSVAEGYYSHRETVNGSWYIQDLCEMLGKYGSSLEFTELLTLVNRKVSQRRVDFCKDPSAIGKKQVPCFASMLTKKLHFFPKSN

Large T antigen = Large T antigen (Simian virus 40, UniProt P03070); type: functional, Betapolyomavirus macacae;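 note: Confirmatory-stage PubChem screen for compounds that inhibit SV40 T antigen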
[1] = molecular target: T2, Histone-lysine N-methyltransferase NSD2 (Homo sapiens, UniProt O96028); type: biochemical
T2 sequence (O96028 whole entry): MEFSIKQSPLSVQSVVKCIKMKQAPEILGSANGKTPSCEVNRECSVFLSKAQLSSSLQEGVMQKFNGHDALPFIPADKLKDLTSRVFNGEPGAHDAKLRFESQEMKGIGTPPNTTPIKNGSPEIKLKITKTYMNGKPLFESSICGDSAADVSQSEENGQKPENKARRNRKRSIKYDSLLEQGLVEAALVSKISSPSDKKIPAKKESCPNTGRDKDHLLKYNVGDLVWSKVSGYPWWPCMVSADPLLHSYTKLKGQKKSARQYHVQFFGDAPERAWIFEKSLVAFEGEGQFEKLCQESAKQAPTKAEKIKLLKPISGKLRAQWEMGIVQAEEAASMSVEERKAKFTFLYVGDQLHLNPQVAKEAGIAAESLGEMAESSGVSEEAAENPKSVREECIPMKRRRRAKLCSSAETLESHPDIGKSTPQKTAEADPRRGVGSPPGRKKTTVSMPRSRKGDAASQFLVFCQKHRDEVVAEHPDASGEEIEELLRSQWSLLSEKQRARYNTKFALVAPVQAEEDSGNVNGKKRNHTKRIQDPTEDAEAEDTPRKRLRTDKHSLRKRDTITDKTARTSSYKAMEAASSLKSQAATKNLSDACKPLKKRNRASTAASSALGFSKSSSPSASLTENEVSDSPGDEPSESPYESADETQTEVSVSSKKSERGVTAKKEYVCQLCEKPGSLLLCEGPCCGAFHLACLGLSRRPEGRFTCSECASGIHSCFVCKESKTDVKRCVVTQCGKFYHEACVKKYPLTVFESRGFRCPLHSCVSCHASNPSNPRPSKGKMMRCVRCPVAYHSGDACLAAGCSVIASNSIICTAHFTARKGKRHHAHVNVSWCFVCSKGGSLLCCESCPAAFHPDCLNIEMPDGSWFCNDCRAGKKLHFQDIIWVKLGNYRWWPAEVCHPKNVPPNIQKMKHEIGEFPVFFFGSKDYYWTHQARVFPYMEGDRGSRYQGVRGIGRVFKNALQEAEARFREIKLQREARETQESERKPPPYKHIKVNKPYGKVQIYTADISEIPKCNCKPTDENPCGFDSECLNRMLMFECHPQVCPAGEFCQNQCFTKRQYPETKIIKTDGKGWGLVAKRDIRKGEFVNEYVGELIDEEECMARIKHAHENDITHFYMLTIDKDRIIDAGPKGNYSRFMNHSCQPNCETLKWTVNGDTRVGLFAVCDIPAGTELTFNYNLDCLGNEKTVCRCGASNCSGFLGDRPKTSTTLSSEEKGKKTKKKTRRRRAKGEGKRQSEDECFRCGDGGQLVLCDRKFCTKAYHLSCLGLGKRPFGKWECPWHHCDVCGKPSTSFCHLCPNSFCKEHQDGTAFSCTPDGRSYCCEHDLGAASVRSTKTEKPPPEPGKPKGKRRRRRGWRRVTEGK

[2] = molecular target: T3, Zinc finger protein mex-5 (Caenorhabditis elegans, UniProt Q9XUB2); assay: MEX-5/TCR-2 RNA interaction inhibitors, dose response, biochemical, C. elegans, fluorescence polarization (AID 1960)
T3 sequence (Q9XUB2 whole entry): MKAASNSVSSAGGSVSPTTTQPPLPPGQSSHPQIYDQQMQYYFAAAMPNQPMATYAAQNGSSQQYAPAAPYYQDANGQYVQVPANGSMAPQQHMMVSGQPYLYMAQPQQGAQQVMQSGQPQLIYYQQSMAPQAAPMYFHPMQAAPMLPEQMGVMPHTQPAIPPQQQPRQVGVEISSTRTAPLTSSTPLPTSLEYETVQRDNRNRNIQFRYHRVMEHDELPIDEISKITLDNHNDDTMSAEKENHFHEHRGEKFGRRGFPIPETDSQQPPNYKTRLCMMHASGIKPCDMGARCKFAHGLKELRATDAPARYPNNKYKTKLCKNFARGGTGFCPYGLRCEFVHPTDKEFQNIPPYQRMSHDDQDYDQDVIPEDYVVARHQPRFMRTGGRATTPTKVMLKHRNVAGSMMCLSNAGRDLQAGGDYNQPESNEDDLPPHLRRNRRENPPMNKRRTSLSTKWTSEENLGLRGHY

[3] = molecular target: T4, RNA-binding protein pos-1 (Caenorhabditis elegans, UniProt G5EF15); assay: inhibitors of POS-1/mex-3 RNA binding, dose response, biochemical, fluorescence polarization (AID 1964);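 note: purified POS-1 fused to maltose binding protein made in E. coli; potency of compounds blocking POS-1 binding to fluorescent RNA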
T4 sequence (G5EF15 whole entry): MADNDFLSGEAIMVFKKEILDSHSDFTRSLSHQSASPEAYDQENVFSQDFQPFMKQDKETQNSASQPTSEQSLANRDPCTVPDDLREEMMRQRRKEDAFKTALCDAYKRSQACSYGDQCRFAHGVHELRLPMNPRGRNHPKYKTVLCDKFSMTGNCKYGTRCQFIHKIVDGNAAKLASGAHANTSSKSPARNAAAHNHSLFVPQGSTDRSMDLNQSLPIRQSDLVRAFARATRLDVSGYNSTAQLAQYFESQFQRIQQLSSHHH

[4] = molecular target: T5, Small ubiquitin-related modifier 1 (Homo sapiens, UniProt P63165); assay: inhibitors of SUMO1 peptide binding, dose response, biochemical, fluorescence polarization, uHTS hits (AID 624382); type: functional; conditions: read-out: IC50_Mean
[5] = molecular target: DNA dC->dU-editing enzyme APOBEC-3A (Homo sapiens, UniProt P31941); assay: Dose Response confirmation of small molecule APOBEC3A DNA Deaminase Inhibitors via a fluorescence-based single-stranded DNA deaminase assay. [Related pubchem assays (depositor defined):AID493011, AID493024]; type: functional
[6] = molecular target: T5, Small ubiquitin-related modifier 1; assay: inhibitors of SUMO1 partner interactions, dose response, biochemical, FRET (AID 624383); type: functional; conditions: read-out: IC50_Mean
[7] = molecular target: DNA dC->dU-editing enzyme APOBEC-3G (Homo sapiens, UniProt Q9HC16); type: functional;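 note: Dose-response counterscreen measuring inhibition of APOBEC3G DNA deaminase activity, run while confirming APOBEC3A inhibitors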
[8] = molecular target: T6, Trace amine-associated receptor 1 (Homo sapiens, UniProt Q96RJ0); assay: Counterscreen for agonists of the human trace amine associated receptor 1 (hTAAR1): Fluorescence-based cell-based high throughput dose response assay to identify hTAAR1 agonist that also desensitize TAAR1 receptor response.; type: functional
T6 sequence (Q96RJ0 whole entry): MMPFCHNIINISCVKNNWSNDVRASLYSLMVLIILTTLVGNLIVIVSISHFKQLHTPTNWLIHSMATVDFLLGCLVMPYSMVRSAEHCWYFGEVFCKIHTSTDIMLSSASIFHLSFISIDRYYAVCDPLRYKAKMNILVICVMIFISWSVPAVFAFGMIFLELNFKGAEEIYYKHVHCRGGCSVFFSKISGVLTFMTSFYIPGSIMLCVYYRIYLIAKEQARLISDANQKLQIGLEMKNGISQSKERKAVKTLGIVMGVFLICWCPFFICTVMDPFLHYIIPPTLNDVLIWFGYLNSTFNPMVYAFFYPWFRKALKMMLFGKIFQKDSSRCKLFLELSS

[9] = molecular target: T6, Trace amine-associated receptor 1; assay: Fluorescence-based cell-based high throughput dose response assay to identify agonists of the human trace amine associated receptor 1 (TAAR1).; type: functional
cells [10] = type: functional, cell-based
cells [11] = type: functional, cell-based; remark: listed apart in the source
Vero = assay: Vero cell toxicity, dose response, cytotoxicity control, plate reader, cherry-pick samples (AID 687020); type: functional, cell-based; conditions: Chlorocebus sabaeus
Beta-galactosidase = Beta-galactosidase (Escherichia coli, UniProt Q8VNN2); assay: Dose response counterscreen for EBI2 assay utilizing the enzyme, b-galactosidase.; type: functional
[12] = molecular target: Endoplasmic reticulum aminopeptidase 1 (Homo sapiens, UniProt Q9NZ08); assay: ERAP1 aminopeptidase inhibitors, dose response, biochemical, cherry-pick, set 2, plate reader (AID 743314)
P388 = assay: cells; type: functional; conditions: Mus musculus
[13] = molecular target: FAD-linked sulfhydryl oxidase ALR (Homo sapiens, UniProt P55789); assay: inhibitors of human ALR sulfhydryl oxidase, dose response, biochemical, H2O2 detection, luminescence, cherry-pick (AID 493248)
Cytochrome P450 1A2 = molecular target: T7, Cytochrome P450 1A2 (Homo sapiens, UniProt P05177);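 note: PubChem cytochrome P450 panel assay, CYP1A2 panel member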
T7 sequence (P05177 whole entry): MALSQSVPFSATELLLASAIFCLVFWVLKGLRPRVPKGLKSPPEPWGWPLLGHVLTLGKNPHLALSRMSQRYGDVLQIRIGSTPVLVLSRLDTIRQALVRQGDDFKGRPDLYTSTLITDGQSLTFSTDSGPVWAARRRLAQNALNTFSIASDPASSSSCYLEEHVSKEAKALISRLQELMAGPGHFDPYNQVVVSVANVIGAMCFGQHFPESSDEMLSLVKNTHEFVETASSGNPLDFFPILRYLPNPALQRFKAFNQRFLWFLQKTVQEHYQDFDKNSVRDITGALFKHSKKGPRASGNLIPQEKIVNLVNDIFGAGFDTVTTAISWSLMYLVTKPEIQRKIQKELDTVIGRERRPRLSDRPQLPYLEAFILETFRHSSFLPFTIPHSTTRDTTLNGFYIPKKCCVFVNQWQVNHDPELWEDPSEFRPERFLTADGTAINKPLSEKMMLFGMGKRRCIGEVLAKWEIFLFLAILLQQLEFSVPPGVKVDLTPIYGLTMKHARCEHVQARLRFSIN

SN12K1 = assay: cells; type: functional; conditions: Homo sapiens
P388/ADR = assay: cells; type: functional; conditions: Mus musculus
[14] = HEp-2 cell cytotoxicity, dose response, cytotoxicity control for RSV inhibitor project, HTS (AID 2410); type: functional; conditions: human respiratory syncytial virus
[15] = T. cruzi growth inhibition in host cells, dose response, cell-based, plate reader, dry powder, set 2 (AID 652275); type: functional

T5 sequence (P63165 whole entry): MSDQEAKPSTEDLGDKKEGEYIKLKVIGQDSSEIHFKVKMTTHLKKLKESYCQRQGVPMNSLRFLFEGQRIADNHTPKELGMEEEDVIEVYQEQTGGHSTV
Sequence of Beta-galactosidase (Q8VNN2 whole entry): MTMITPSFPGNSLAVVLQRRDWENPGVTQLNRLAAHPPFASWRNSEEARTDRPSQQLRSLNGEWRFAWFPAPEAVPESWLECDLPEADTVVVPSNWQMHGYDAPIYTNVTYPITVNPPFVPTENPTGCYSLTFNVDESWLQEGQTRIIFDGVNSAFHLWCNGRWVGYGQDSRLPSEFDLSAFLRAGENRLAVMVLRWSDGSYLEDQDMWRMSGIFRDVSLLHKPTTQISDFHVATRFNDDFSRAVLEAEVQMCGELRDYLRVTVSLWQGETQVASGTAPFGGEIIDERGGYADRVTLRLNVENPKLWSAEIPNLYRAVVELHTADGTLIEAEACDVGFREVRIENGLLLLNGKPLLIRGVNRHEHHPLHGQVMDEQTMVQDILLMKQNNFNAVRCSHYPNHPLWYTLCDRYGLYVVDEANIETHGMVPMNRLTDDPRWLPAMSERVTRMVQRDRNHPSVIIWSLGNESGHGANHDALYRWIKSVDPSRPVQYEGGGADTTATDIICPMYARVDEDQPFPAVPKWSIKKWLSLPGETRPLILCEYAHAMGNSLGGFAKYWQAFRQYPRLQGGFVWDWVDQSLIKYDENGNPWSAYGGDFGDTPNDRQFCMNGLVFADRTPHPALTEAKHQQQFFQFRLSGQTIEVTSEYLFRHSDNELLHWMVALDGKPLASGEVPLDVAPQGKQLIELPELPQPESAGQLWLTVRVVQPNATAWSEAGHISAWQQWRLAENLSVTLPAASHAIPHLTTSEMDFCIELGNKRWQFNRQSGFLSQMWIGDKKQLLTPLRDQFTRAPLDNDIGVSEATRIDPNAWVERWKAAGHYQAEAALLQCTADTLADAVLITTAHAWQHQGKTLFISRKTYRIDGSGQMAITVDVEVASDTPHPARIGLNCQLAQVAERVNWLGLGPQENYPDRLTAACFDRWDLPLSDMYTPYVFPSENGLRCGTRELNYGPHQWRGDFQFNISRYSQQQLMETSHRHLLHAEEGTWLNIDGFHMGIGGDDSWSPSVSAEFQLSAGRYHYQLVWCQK
Sequence of Endoplasmic reticulum aminopeptidase 1 (Q9NZ08 whole entry): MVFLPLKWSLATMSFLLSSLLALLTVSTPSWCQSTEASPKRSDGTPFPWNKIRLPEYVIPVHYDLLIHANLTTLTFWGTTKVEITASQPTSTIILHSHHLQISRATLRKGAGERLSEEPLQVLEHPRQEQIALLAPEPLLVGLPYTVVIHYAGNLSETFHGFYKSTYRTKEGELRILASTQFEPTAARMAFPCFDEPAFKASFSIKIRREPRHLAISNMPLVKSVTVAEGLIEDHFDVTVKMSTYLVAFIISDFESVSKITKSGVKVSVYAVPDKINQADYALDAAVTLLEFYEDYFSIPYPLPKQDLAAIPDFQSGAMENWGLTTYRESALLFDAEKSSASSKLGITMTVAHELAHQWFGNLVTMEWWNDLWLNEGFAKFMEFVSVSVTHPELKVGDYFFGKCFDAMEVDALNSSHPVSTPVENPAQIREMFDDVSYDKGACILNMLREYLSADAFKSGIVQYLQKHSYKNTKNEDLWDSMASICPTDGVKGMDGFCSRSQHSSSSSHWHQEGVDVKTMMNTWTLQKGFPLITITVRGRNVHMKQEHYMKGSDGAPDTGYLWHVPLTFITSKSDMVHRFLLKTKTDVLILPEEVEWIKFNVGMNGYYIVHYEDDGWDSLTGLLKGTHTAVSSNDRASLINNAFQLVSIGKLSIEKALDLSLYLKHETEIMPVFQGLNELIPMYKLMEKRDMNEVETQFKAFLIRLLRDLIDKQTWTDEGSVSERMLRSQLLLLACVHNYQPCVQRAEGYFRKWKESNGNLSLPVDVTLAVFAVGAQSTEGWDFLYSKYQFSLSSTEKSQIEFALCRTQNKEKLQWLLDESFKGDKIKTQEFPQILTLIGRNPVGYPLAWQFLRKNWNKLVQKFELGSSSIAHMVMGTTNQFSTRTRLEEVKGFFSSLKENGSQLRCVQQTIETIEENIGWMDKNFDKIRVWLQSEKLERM
Sequence of DNA dC->dU-editing enzyme APOBEC-3A (P31941 whole entry): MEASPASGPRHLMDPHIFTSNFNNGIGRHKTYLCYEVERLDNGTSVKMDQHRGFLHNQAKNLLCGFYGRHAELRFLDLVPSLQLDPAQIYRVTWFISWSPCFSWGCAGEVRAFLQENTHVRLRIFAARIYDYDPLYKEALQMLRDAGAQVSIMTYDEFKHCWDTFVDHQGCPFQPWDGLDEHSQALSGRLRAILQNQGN
Sequence of FAD-linked sulfhydryl oxidase ALR (P55789 whole entry): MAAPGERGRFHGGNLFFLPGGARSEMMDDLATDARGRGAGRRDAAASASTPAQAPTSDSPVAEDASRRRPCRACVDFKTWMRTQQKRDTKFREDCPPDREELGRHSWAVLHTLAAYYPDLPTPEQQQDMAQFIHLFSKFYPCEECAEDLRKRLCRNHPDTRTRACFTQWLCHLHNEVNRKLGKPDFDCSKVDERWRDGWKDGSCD
Sequence of Large T antigen (P03070 whole entry): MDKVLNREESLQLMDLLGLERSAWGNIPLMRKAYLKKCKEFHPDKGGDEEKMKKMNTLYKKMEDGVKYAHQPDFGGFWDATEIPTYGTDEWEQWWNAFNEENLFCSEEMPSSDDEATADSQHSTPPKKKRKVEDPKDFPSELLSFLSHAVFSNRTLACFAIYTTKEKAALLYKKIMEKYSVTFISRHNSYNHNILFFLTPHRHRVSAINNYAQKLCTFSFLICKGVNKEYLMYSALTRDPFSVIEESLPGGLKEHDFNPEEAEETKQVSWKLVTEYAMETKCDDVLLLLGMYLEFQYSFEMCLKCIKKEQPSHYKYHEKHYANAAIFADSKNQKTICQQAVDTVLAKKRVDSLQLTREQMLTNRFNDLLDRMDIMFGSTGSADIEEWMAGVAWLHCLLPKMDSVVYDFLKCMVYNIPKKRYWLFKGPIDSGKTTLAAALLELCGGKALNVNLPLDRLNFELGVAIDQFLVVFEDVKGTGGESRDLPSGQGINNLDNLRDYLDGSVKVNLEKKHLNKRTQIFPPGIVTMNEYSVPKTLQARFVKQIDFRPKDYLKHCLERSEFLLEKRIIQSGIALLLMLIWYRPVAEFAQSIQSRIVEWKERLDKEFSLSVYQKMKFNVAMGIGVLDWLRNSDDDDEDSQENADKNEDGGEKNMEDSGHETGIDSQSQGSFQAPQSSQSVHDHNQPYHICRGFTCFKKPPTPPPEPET
Sequence of DNA dC->dU-editing enzyme APOBEC-3G (Q9HC16 whole entry): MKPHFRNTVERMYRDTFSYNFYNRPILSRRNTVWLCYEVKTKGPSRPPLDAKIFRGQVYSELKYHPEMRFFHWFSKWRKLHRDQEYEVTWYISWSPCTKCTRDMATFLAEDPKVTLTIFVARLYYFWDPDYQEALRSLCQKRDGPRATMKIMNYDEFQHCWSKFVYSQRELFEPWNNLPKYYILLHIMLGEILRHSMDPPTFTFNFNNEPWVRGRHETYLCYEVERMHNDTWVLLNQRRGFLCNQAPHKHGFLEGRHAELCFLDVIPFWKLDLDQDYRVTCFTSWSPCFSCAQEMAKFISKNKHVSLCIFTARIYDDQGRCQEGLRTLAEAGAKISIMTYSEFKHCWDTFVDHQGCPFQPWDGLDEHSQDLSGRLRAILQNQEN

SMILES: Nc1ccc(Nc2ccccc2)c(S(=O)(=O)O)c1
- AC50 (Caspase-6): 1.22 µM (active)
- IC50 (Large T antigen): 7.15 µM (active)
- AC50 [1]: 8.41 µM (active)
- EC50 [2]: 34 µM (active)
- EC50 [3]: 108 µM (active)
- IC50 [4]: > 66.6 µM (inactive)
- IC50 [5]: 16.5 µM (active)
- IC50 [6]: 12.8 µM (active)
- IC50 [7]: 34.1 µM (active)

SMILES: O=C(Nc1ccccc1)Nc1ccno1
- IC50 [8]: 4.63 µM (active)
- EC50 [9]: 4.65 µM (active)
- IC50 (cells [10]): > 29.9 µM (inactive)
- EC50 (cells [11]): > 29.9 µM (inactive)

SMILES: COc1ccc(C(CNC(=O)COc2cc(C)ccc2Cl)N2CCCCC2)cc1 (configuration not stated)
- AC50 (Vero): 17.6 µM (active)

SMILES: O=C(CSc1nnc(-c2ccc(O)cc2)n1Cc1ccccc1)NNC(=O)c1ccc(Br)cc1
- IC50 (Beta-galactosidase): > 80 µM (inactive)

SMILES: COc1cc2ccc(=O)oc2cc1O [SCOPOLETIN]
- AC50 [12]: 5.79 µM (active)
- GI50 (P388): 5.55 µM (inactive)
- AC50 [13]: 4.4 µM (active)
- AC50 (Cytochrome P450 1A2): 5.01 µM (inconclusive)
- GI50 (SN12K1): 19.4 µM (inactive)
- GI50 (P388/ADR): 12.5 µM (inactive)

SMILES: Cc1c(-c2ccccc2)c(=O)oc2cc(O)ccc12
- AC50 [12]: 4.79 µM (active)
- CC50 [14]: 42.4 µM (active)

SMILES: O=C(c1cc2ccccc2o1)N1CCN(S(=O)(=O)c2ccc(Cl)s2)CC1
- IC50 (Beta-galactosidase): > 80 µM (inactive)

SMILES: COc1cccc(C(=O)N[C@@H](Cc2cccnc2)C(=O)N2CCC[C@H]2C(=O)NCCc2ccccc2Cl)c1
- IC50 [8]: 4.58 µM (active)
- EC50 [9]: 2.18 µM (active)
- IC50 (cells [10]): > 29.9 µM (inactive)
- EC50 (cells [11]): > 29.9 µM (inactive)

SMILES: C[C@H]1CN([C@@H](C)CO)C(=O)c2cccc(NC(=O)c3ccncc3)c2O[C@@H]1CN(C)Cc1ccc(F)c(Cl)c1
- AC50 [15]: 0.00198 µM (active)

SMILES: CC(C)N1C[C@@H](CNCc2ccc(Oc3ccccc3)cc2)Oc2c(NC(=O)c3ccncc3)cccc2C1=O
- AC50 [15]: 0.00666 µM (active)

SMILES: Cc1cccc(-c2ccc([C@H]3[C@H](CO)N4CCCCN(Cc5cncnc5)C[C@@H]34)cc2)c1
- AC50 [15]: 0.198 µM (active)

SMILES: O=C(O)C1C2CCC(C2)C1C(=O)NCCc1ccc(F)cc1 (configuration not stated)
- IC50 [8]: > 29.9 µM (inactive)
- EC50 [9]: 14.8 µM (inactive)
- IC50 (cells [10]): > 29.9 µM (inactive)
- EC50 (cells [11]): > 29.9 µM (inactive)

SMILES: COCCNc1nc(Nc2ccccc2Cl)c2sccc2n1
- AC50 (Vero): 6.94 µM (active)

SMILES: C#CCNC(=O)C[C@@H]1C[C@@]2(C(=O)OC)CCCCC=C2N(Cc2cccc3ccccc23)C1=O
- AC50 (Vero): 36.6 µM (active)
